Experimental data reported in patent publication US6225306A, “Biphenyl derivatives and drug composition” (Wakamoto Pharmaceutical Co., Ltd., priority 1997, dated 2001).
Counter-ions that a name gives are not always drawn. Like-named read-outs stand apart in the source and are kept apart here.

Key:
Vasopressin V1 Receptor = Vasopressin V1 Receptor (Rattus norvegicus, UniProt P30560); assay: biochemical; type: binding, rat (Sprague-Dawley, female; liver crude membrane); details: for inhibition at 0.1 µM: 1 h, read-out: Binding Rate of Vasopressin V1 Receptor
Vasopressin V1 Receptor, sequence (P30560 whole entry): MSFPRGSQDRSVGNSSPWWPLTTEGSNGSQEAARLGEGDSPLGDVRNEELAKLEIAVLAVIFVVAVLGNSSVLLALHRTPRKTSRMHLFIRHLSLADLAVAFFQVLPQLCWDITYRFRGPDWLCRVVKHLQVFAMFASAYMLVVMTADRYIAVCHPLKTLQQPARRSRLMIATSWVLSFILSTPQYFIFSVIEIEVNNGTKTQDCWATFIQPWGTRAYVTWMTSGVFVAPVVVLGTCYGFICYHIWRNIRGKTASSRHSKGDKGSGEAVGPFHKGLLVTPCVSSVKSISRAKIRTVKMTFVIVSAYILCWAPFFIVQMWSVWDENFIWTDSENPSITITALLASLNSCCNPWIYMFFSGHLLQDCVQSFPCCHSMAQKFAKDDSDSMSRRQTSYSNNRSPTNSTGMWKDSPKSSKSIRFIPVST
Description: The livers excised from Sprague-Dawley female rats were cut into small pieces, and were homogenized in 50 mM Tris-HCl, pH 7.4 hereunder referred to as "buffer"). The homogenate was centrifuged at 50000×g, at 4° C. for 20 minutes. The pellet was added the buffer in an amount of 10 times the volume of the pellet, the mixture was recentrifuged by the same method as described above to wash the residue. The buffer was further added to the resulting pellet so that the protein content thereof was adjusted to 10 mg/ml to thus give a crude membrane fraction of rat liver. The crude membrane fraction of rat liver was used in the following test. More specifically, 5000 μg of the crude liver membrane was incubated with [^3 H]-Arg-vasopressin V-1 antagonist ([^3 H) vasopressin V1 antagonist: 2 nM) and various concentration (3×10^-12 to 10^-6) of the test compounds in a 1000 μL of buffer containing 10 mM magnesium chloride, 10 mM potassium chloride and 0.1% bovine serum albumin at 25° C. for 60 minutes. Thereafter the incubation mixture was rapidly filtered by vacuum using a cell harvester. The filters were washed with buffer to remove free ligands and excess buffer, and to thus trap labeled ligand linked with the receptor on the filter paper. The filter paper was sufficiently dried and mixed with a liquid scintillator, and the amount of the [^3 H] vasopressin V1 antagonist bonded to the membrane was determined using a liquid scintillation counter. The inhibition rate at each concentration was calculated according to the following equation:
Inhibition Rate (%)=100-[(B-N)/(B0 -N)]×100
Wherein B represents the amount of the [^3 H] vasopressin V1 antagonist bonded to the membrane in the presence of known amounts of the compound to be tested and the [^3 CH] vasopressin V1 antagonist;
B0 represents the amount of the [^3 H] vasopressin V1 antagonist bonded to the membrane in the absence of the compound to be tested;
N represents the amount of the [^3 H] vasopressin V1 antagonist bonded to the membrane in the presence of an excess of vasopressin (10^-6 M).
The IC50 value (the concentration required to cause 50% inhibition of the specific binding of [^3 H]-V1 antagonist) was determined. […] On the other hand, for the compounds which were investigated only one concentration (10^-7 M), the inhibition rate at that concentration was defined to be the binding rate.

Vasopressin V2 Receptor = Vasopressin V2 Receptor (Rattus norvegicus, UniProt Q00788); assay: biochemical; type: binding, rat (Sprague-Dawley, female; kidney crude membrane); details: for inhibition at 0.1 µM: 1 h, read-out: Binding Rate of Vasopressin V2 Receptor
Vasopressin V2 Receptor, sequence (Q00788 whole entry): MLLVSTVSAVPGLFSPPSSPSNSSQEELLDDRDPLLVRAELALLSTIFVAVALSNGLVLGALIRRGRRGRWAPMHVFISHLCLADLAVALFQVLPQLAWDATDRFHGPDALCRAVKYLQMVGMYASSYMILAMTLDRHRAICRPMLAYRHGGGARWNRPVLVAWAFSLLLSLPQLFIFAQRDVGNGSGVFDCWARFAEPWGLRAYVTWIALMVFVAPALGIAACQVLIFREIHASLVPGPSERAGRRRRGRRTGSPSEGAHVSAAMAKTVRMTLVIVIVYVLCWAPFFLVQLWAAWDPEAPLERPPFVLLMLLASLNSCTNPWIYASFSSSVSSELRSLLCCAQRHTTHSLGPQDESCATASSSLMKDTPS

Normal Conscious Rat = assay: Aquaretic Effects in Normal Conscious Rat (urine volume); type: in vivo, rat (Sprague-Dawley, male)
Description: Aquaretic Effects in Normal Conscious Rat
Studies were performed with Sprague-Dawley male SPF rats (body weight: 240 to 320 g; 8-week-old). In this experiment, each group consisted of not less than 4 animals and rats were fasted over 16 to 20 hours. The animals were acclimatized in metabolic cages for one hour, then each compound to be tested was dissolved in 100% N,N-dimethylformamide or suspended in 5% gum arabic solution and administered to these animals intravenously (iv.) in a dose of 3 mg/kg or orally (p.o.) in a dose of 30 mg/kg. Immediately after the test compound or vehicle were orally administered, saline (25 ml/kg) was given orally. Spontaneous voided urines were collected for 4 hours after the administration of the compound and the amount of the urine were determined. In this case, the control group consisted of animals to which only 5% gum arabic was orally administered.
In addition, known compounds of Comparative Examples 2 and Comparative Examples 3 and 4 represented by the following formulas were used as control compounds.

[1] = 10^-7 M, inhibition rate at this concentration

Compound	inhibition at 0.1 µM (Vasopressin V1 Receptor; [1]) [%]	inhibition at 0.1 µM (Vasopressin V2 Receptor; [1]) [%]	Amount of Urine Volume (Normal Conscious Rat; 3 mg/kg, i.v.) [ml/kg/0-4 hr.]	Amount of Urine Volume (Normal Conscious Rat; 30 mg/kg, p.o.) [ml/kg/0-4 hr.]	inhibition at 0.1 µM (Vasopressin V1 Receptor) [%]	inhibition at 0.1 µM (Vasopressin V2 Receptor) [%]	IC50 (Vasopressin V1 Receptor; [3H] vasopressin V1 antagonist 2 nM, 25° C., 60 minutes, read-out: Affinity for Vasopressin V1 Receptor, IC50) [nM]	IC50 (Vasopressin V2 Receptor; [3H] vasopressin V2 antagonist 2 nM, 25° C., 60 minutes, read-out: Affinity for Vasopressin V2 Receptor, IC50) [nM]
Cl.O=C1C[C@@H]2CN(C(=O)c3ccc(NC(=O)c4ccccc4-c4ccccc4)cc3)c3ccccc3CN2C1 [Example 48, (11aR)-10-[4-[(2-Phenylbenzoyl) Amino]Benzoyl]-1,2,3,10,11, 11a-Hexahydro-5H-Pyrrolo[2,1-c][1,4]Benzodiazepin-2-One Hydrochloride]	–	–	78.9	14.8	42.3	96.8	–	–
Cl.O=C(Nc1ccc(C(=O)N2C[C@H]3C[C@H](O)CN3Cc3ccccc32)cc1)c1ccccc1-c1ccccc1 [Example 47, (2S, 11aR)-2-Hydroxy-10-[4-[(2-Phenylbenzoyl) Amino]Benzoyl]-1,2,3,10,11,11a-Hexahydro-5H-Pyrrolo[2,1-c][1,4]Benzodiazepine Hydrochloride]	–	–	79.5	109.6	59.8	91.9	62	0.77
Cl.O=C(Nc1ccc(C(=O)N2C[C@H]3CCCN3Cc3ccccc32)cc1)c1ccccc1-c1ccccc1 [Example 43, (11aR)-10-[4-[(2-Phenylbenzoyl) Amino]Benzoyl]-1,2,3,10,11, 11a-Hexahydro-5H-Pyrrolo[2,1-c][1,4]Benzodiazepine Hydrochloride]	–	–	77.5	121.6	61.6	100	–	–
O=C(Nc1ccc(C(=O)N2C[C@H]3CCCN3c3ccccc32)cc1)c1ccccc1-c1ccccc1 [Example 11, (3aR)-5-[4-[(2-Phenylbenzoyl) Amino]Benzoyl]-1,2,3,3a,4,5-Hexahydro-Pyrrolo[1,2-a]Quinoxaline]	34	100	56.5	69.6	–	–	–	–
O=C(Nc1ccc(C(=O)N2C[C@H]3C[C@H](O)CN3c3ccccc32)cc1)c1ccccc1-c1ccccc1 [Example 17, (2S, 3aR)-2-Hydroxy-5-[4-[(2-Phenylbenzoyl) Amino]Benzoyl]-1,2,3,3a,4,5-Hexahydro-Pyrrolo[1,2-a]Quinoxaline]	52.4	100	58.6	26.3	–	–	–	–
CC(=O)O[C@H]1C[C@@H]2CN(C(=O)c3ccc(NC(=O)c4ccccc4-c4ccc(C)cc4)cc3)c3ccccc3N2C1 [Example 16, (2S, 3aR)-2-Acetoxy-5-[4-[[2-(4-Tolyl) Benzoyl]Amino]Benzoyl]-1,2,3,3a,4,5-Hexahydro-Pyrrolo[1,2-a]Quinoxaline]	68.2	100	71.0	72.0	–	–	–	–
Cc1ccc(-c2ccccc2C(=O)Nc2ccc(C(=O)N3C[C@@H]4C[C@H](O)CN4c4ccccc43)cc2)cc1 [Example 8, (2S, 3aS)-2-Hydroxy-5-[4-[[2-(4-Tolyl) Benzoyl]Amino]Benzoyl]-1,2,3,3a,4,5-Hexahydro-Pyrrolo[1,2-a]Quinoxahine]	16.3	100	–	–	–	–	–	–
CC(=O)O[C@H]1C[C@@H]2CCN(C(=O)c3ccc(NC(=O)c4ccccc4-c4ccccc4)cc3)c3ccccc3N2C1 [Example 53, (2S, 3aS)-2-Acetoxy-6-[4-[(2-Phenylbenzoyl) Amino]Benzo]-2,3,3a,4,5,6-Hexahydro-1H-Pyrrolo[1,2-a][1,5]Benzodiazepine]	63.8	97.9	–	–	–	–	–	–
CC(=O)O[C@H]1C[C@@H]2CN(C(=O)c3ccc(NC(=O)c4ccccc4-c4ccccc4)cc3)c3ccccc3CN2C1 [Example 46, (2S, 11aR)-2-Acetoxy-10-[4-[(2-Phenylbenzoyl) Amino]Benzoyl]-1,2,3,10,11,11a-Hexahydro-5H-Pyrrolo[2,1-c][1,4]Benzodiazepine]	–	–	82.5	118.8	–	–	–	–
Cc1ccccc1C(=O)Nc1ccc(C(=O)N2Cc3cccn3Cc3ccccc32)cc1 [Comp. Ex. 4, reference compound]	–	–	34.8	22.6	–	–	–	–

More lines, main results first:

inhibition at 0.1 µM (Vasopressin V1 Receptor; [1]) [%]	inhibition at 0.1 µM (Vasopressin V2 Receptor; [1]) [%]	Compound	Amount of Urine Volume (Normal Conscious Rat; 3 mg/kg, i.v.) [ml/kg/0-4 hr.]	Amount of Urine Volume (Normal Conscious Rat; 30 mg/kg, p.o.) [ml/kg/0-4 hr.]	inhibition at 0.1 µM (Vasopressin V1 Receptor) [%]	inhibition at 0.1 µM (Vasopressin V2 Receptor) [%]	IC50 (Vasopressin V1 Receptor; [3H] vasopressin V1 antagonist 2 nM, 25° C., 60 minutes, read-out: Affinity for Vasopressin V1 Receptor, IC50) [nM]	IC50 (Vasopressin V2 Receptor; [3H] vasopressin V2 antagonist 2 nM, 25° C., 60 minutes, read-out: Affinity for Vasopressin V2 Receptor, IC50) [nM]
33.5	100	Cc1ccc(-c2ccccc2C(=O)Nc2ccc(C(=O)N3C[C@H]4C[C@H](N(C)C)CN4c4ccccc43)cc2)cc1 [Example 22, (2S, 3aR)-2-(N,N-Dimethylamino)-5-[4-[[2-(4-Tolyl) Benzoy]Amino]Benzoyl]-1,2,3,3a,4,5-Hexahydro-Pyrrolo[1,2-a]Quinoxaline Hydrochloride]	58.8	79.6	–	–	–	–
4	100	Cc1ccc(-c2ccccc2C(=O)Nc2ccc(C(=O)N3C[C@@H]4CCCN4C(=O)c4ccccc43)cc2)cc1 [Example 26, (11aS)-10-[4-[[2-(4-Tolyl) Benzoyl]Amino]Benzoyl]-1,2,3,10,11,11a-Hexahydro-5H-Pyrrolo[2,1-c][1,4]Benzodiazepin-5-One]	72.3	88.3	–	–	–	–
4.7	100	Cc1ccc(-c2ccccc2C(=O)Nc2ccc(C(=O)N3C[C@@H]4CCCN4C(=S)c4ccccc43)cc2)cc1 [Example 38, (11aS)-10-[4-[[2-(4-Tolyl) Benzoyl]Amino]Benzoyl]-1,2,3,10,11, 11a-Hexahydro-5H-Pyrrolo[2,1-c][1,4]Benzodiazepin-5-Thione]	60.0	66.6	–	–	–	–
88.3	92.8	O=C(Nc1ccc(C(=O)N2CC[C@@H]3CCCN3c3ccccc32)cc1)c1ccccc1-c1ccccc1 [Example 49, (3aS)-6-[4-[(2-Phenylbenzoyl) Amino]Benzoyl]-2,3,3a,4,5,6-Hexahydro-1H-Pyrrolo[1,2-a][1,5]Benzodiazepine]	76.5	43.8	–	–	–	–
95.7	100	O=C(Nc1ccc(C(=O)N2CC[C@H]3C[C@@H](O)CN3c3ccccc32)cc1)c1ccccc1-c1ccccc1 [Example 52, (2R,3aS)-2-Hydroxy-6-[4-[(2-Phenylbenzoyl) Amino]Benzoyl]-2,3,3a,4,5,6-Hexahydro-1H-Pyrrolo[1,2-a][1,5]Benzodiazepine]	60.6	36.6	–	–	–	–
2.8	100	O=C(Nc1ccc(C(=O)N2C[C@@H]3CCCN3C(=S)c3ccccc32)cc1)c1ccccc1-c1ccccc1 [Example 37, (11aS)-10-[4-[(2-Phenylbenzoyl) Amino]Benzoyl]-1,2,3,10,11, 11a-Hexahydro-5H-Pyrrolo[2,1-c][1,4]Benzodiazepin-5-Thione]	40.7	21.1	–	–	–	–
16.5	100	Cc1ccc(-c2ccccc2C(=O)Nc2ccc(C(=O)N3C[C@H]4CC(=O)CN4c4ccccc43)cc2)cc1 [Example 24]	49.4	46.1	–	–	–	–
6.6	92	O=C(Nc1ccc(C(=O)N2C[C@@H]3CCCN3Cc3ccccc32)cc1)c1ccccc1-c1ccccc1 [Example 41, (11aS)-10-[4-[(2-Phenylbenzoyl) Amino]Benzoyl]-1,2,3,10,11, 11a-Hexahydro-5H-Pyrrolo[12,1-c][1,4]Benzodiazepine Hydrochloride]	29.6	73.8	–	–	–	–
18.9	99.5	O=C(Nc1ccc(C(=O)N2C[C@@H]3C[C@H](O)CN3C(=O)c3ccccc32)cc1)c1ccccc1-c1ccccc1 [Example 29, (2S, 11aS)-2-Hydroxy-10-[4-[(2-Phenylbenzoyl) Amino]Benzoyl]-1,2,3,10,11,11a-Hexahydro-5H-Pyrrolo[2,1-c][1,4]Benzodiazepin-5-One]	50.4	14.0	–	–	–	–
92.4	97.8	O=C(Nc1ccc(C(=O)N2CC[C@@H]3C[C@@H](O)CN3c3ccccc32)cc1)c1ccccc1-c1ccccc1 [Example 50]	60.0	36.0	–	–	–	–
98.6	95.1	O=C(Nc1ccc(C(=O)N2CC[C@H]3C[C@H](O)CN3c3ccccc32)cc1)c1ccccc1-c1ccccc1 [Example 54, (2S, 3aS)-2-Hydroxy-6-[4-[(2-Phenylbenzoyl) Amino]Benzoyl]-2,3,3a,4,5,6-Hexahydro-1H-Pyrrolo[1,2-a][1,5]Benzodiazepine]	78.3	68.0	–	–	–	–
